Legend:
Assay type in all cases: cell-based
hGLP-1R [1] = biological target: T1, hGLP-1R (Homo sapiens, UniProt P43220); assay: Functional cAMP activity in the presence of 1% HSA; conditions: read-out: cAMP Rel EC50, hGLP-1R
hGcgR = hGcgR (Homo sapiens, UniProt P47871); assay: Functional cAMP activation in the presence of 0.1% casein (no HSA); conditions: in the presence of 0.1% casein (no HSA); geometric mean; read-out: Relative cAMP EC50, hGcgR;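 also: intracellular cAMP rise after 30 min at 37 °C, read by HTRF against a cAMP standard curve, scaled from buffer only (0%) to maximal control ligand response (100%)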
hGLP-1R [2] = biological target: T1, hGLP-1R; assay: as above; conditions: in the presence of 0.1% casein (no HSA); geometric mean; read-out: Relative cAMP EC50, hGLP-1R
human GcgR = human GcgR (Homo sapiens, UniProt P47871); assay: Functional cAMP activity in the presence of 1% HSA; conditions: read-out: cAMP Rel EC50, hGcgR
hGIPR [3] = biological target: T2, hGIPR (Homo sapiens, UniProt P48546); assay: Functional cAMP activation in the presence of 0.1% casein (no HSA); conditions: in the presence of 0.1% casein (no HSA); geometric mean; read-out: Relative cAMP EC50, hGIPR;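 also: intracellular cAMP rise after 30 min at 37 °C read by HTRF against a standard curve, scaled between buffer alone (0%) and top control ligand concentration (100%), four-parameter fit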
T2 sequence (P48546 22-466): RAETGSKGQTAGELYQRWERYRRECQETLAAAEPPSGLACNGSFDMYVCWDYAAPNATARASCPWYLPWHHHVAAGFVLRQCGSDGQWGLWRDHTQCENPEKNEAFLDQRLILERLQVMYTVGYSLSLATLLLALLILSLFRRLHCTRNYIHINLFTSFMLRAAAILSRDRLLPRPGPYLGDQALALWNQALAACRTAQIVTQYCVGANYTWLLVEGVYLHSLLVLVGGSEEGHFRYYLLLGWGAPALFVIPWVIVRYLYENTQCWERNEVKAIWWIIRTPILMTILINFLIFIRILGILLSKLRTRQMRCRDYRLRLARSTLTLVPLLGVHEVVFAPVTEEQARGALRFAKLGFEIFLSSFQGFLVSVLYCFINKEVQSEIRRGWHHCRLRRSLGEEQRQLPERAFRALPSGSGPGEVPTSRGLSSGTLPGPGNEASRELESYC

hGIPR [4] = biological target: T2, hGIPR; assay: Functional cAMP activity in the presence of 1% HSA; conditions: read-out: cAMP Rel EC50, hGIPR
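For Relative cAMP EC50, hGLP-1R in this document: intracellular cAMP rise after 30 min at 37 °C read by HTRF, normalized between buffer only (0%) and maximal control ligand (100%), four-parameter variable-slope fit.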

Chain of human GcgR (P47871 26-477): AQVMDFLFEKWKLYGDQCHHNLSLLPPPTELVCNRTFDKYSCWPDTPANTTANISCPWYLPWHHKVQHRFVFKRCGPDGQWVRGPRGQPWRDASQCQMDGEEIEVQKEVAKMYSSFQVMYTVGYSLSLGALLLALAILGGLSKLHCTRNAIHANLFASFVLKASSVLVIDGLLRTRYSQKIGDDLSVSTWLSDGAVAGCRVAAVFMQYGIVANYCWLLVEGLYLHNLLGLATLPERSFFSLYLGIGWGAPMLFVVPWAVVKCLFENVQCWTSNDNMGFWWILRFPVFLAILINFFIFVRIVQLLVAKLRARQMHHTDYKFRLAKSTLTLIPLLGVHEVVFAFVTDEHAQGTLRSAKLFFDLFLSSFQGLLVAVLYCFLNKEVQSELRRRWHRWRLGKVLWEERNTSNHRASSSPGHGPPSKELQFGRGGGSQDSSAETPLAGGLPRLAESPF
Chain of hGcgR (P47871 26-477): as above
T1 sequence (P43220 24-463): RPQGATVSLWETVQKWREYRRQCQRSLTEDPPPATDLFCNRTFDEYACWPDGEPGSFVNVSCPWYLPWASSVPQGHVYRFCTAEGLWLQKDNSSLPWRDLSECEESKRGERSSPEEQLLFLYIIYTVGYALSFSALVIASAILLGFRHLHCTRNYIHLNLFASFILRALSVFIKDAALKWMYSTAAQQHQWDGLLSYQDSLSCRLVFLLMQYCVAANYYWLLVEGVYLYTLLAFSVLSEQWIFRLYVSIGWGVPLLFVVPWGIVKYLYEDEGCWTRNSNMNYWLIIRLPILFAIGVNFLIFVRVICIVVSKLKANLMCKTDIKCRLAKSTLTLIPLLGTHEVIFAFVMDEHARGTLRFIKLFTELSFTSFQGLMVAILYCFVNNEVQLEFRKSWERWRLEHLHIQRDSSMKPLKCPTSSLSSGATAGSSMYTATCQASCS

Compound	EC50 (hGLP-1R [1])	EC50 (hGcgR)	EC50 (hGLP-1R [2])	EC50 (human GcgR)	EC50 (hGIPR [3])	EC50 (hGIPR [4])
CC[C@H](C)[C@H](NC(=O)[C@H](CC(C)C)NC(=O)[C@H](Cc1ccc(O)cc1)NC(=O)[C@H](CCC(=O)O)NC(=O)[C@@H](NC(=O)[C@H](Cc1ccccc1)NC(=O)[C@H](C)NC(=O)[C@](C)(Cc1ccncc1)NC(=O)[C@H](CCC(N)=O)NC(=O)[C@H](C)NC(=O)[C@H](CCCCNC(=O)COCCOCCNC(=O)CC[C@H](NC(=O)CCCCCCCCCCCCCCCCC(=O)O)C(=O)O)NC(=O)[C@H](CCCCN)NC(=O)[C@H](CC(=O)O)NC(=O)[C@H](CC(C)C)NC(=O)[C@](C)(CC(C)C)NC(=O)[C@H](CCC(N)=O)NC(=O)[C@H](CO)NC(=O)[C@H](Cc1ccncc1)NC(=O)[C@H](CC(=O)O)NC(=O)[C@H](CO)NC(=O)[C@@H](NC(=O)[C@H](Cc1ccccc1)NC(=O)[C@@H](NC(=O)CNC(=O)[C@H](CCC(N)=O)NC(=O)C(C)(C)NC(=O)[C@@H](N)Cc1ccc(O)cc1)[C@@H](C)O)[C@@H](C)O)[C@@H](C)CC)C(=O)N[C@@H](C)C(=O)NCC(=O)NCC(=O)N1CCC[C@H]1C(=O)N[C@@H](CO)C(=O)N[C@@H](CO)C(=O)NCC(=O)N[C@@H](C)C(=O)N1CCC[C@H]1C(=O)N1CCC[C@H]1C(=O)N1CCC[C@H]1C(=O)N[C@@H](CO)C(=O)NCC(=O)N[C@@H](CO)C(N)=O [Example 827]	53.8 nM	4.23 nM	0.593 nM	424 nM	0.12 nM	19.5 nM
CC[C@H](C)[C@H](NC(=O)[C@H](CC(C)C)NC(=O)[C@H](Cc1ccc(O)cc1)NC(=O)[C@H](CCC(=O)O)NC(=O)[C@@H](NC(=O)[C@H](Cc1ccccc1)NC(=O)[C@H](C)NC(=O)[C@](C)(Cc1ccncc1)NC(=O)[C@H](CCC(N)=O)NC(=O)[C@H](C)NC(=O)[C@H](CCCCNC(=O)COCCOCCNC(=O)CC[C@H](NC(=O)CC[C@H](NC(=O)CCCCCCCCCCCCCCCCC(=O)O)C(=O)O)C(=O)O)NC(=O)[C@H](CCCCN)NC(=O)[C@H](CC(=O)O)NC(=O)[C@H](CC(C)C)NC(=O)[C@](C)(CC(C)C)NC(=O)[C@H](CCC(N)=O)NC(=O)[C@H](CO)NC(=O)[C@H](Cc1ccncc1)NC(=O)[C@H](CC(=O)O)NC(=O)[C@H](CO)NC(=O)[C@@H](NC(=O)[C@H](Cc1ccccc1)NC(=O)[C@@H](NC(=O)CNC(=O)[C@H](CCC(N)=O)NC(=O)C(C)(C)NC(=O)[C@@H](N)Cc1ccc(O)cc1)[C@@H](C)O)[C@@H](C)O)[C@@H](C)CC)C(=O)N[C@@H](C)C(=O)NCC(=O)NCC(=O)N1CCC[C@H]1C(=O)N[C@@H](CO)C(=O)N[C@@H](CO)C(=O)NCC(=O)N[C@@H](C)C(=O)N1CCC[C@H]1C(=O)N1CCC[C@H]1C(=O)N1CCC[C@H]1C(=O)N[C@@H](CO)C(=O)NCC(=O)N[C@@H](CO)C(N)=O [Example 869]	114 nM	9.94 nM	2 nM	571 nM	0.142 nM	14.1 nM
CC[C@H](C)[C@H](NC(=O)[C@H](CC(C)C)NC(=O)[C@H](Cc1ccc(O)cc1)NC(=O)[C@H](CCC(=O)O)NC(=O)[C@@H](NC(=O)[C@H](Cc1ccccc1)NC(=O)[C@H](C)NC(=O)[C@](C)(Cc1ccncc1)NC(=O)[C@H](CCC(N)=O)NC(=O)[C@H](C)NC(=O)[C@H](CCCCNC(=O)CC[C@H](NC(=O)CC[C@H](NC(=O)CCCCCCCCCCCCCCCCC(=O)O)C(=O)O)C(=O)O)NC(=O)[C@H](CCCCN)NC(=O)[C@H](CC(=O)O)NC(=O)[C@H](CC(C)C)NC(=O)[C@](C)(CC(C)C)NC(=O)[C@H](CCC(N)=O)NC(=O)[C@H](CO)NC(=O)[C@H](Cc1ccncc1)NC(=O)[C@H](CC(=O)O)NC(=O)[C@H](CO)NC(=O)[C@@H](NC(=O)[C@H](Cc1ccccc1)NC(=O)[C@@H](NC(=O)CNC(=O)[C@H](CCC(N)=O)NC(=O)C(C)(C)NC(=O)[C@@H](N)Cc1ccc(O)cc1)[C@@H](C)O)[C@@H](C)O)[C@@H](C)CC)C(=O)N[C@@H](C)C(=O)NCC(=O)NCC(=O)N1CCC[C@H]1C(=O)N[C@@H](CO)C(=O)N[C@@H](CO)C(=O)NCC(=O)N[C@@H](C)C(=O)N1CCC[C@H]1C(=O)N1CCC[C@H]1C(=O)N1CCC[C@H]1C(=O)N[C@@H](CO)C(=O)NCC(=O)N[C@@H](CO)C(N)=O [Example 870]	71.2 nM	4.4 nM	0.962 nM	736 nM	0.0698 nM	7.29 nM
CC[C@H](C)[C@H](NC(=O)[C@H](CC(C)C)NC(=O)[C@H](Cc1ccc(O)cc1)NC(=O)[C@H](CCC(=O)O)NC(=O)[C@@H](NC(=O)[C@H](Cc1ccccc1)NC(=O)[C@H](CCC(=O)O)NC(=O)[C@](C)(Cc1ccncc1)NC(=O)[C@H](CCC(N)=O)NC(=O)[C@H](C)NC(=O)[C@H](CCCCNC(=O)CC[C@H](NC(=O)CC[C@H](NC(=O)CCCCCCCCCCCCCCCCC(=O)O)C(=O)O)C(=O)O)NC(=O)[C@H](CCCN)NC(=O)[C@H](CC(=O)O)NC(=O)[C@H](CC(C)C)NC(=O)[C@](C)(CC(C)C)NC(=O)[C@H](CCCN)NC(=O)[C@H](CO)NC(=O)[C@H](Cc1ccncc1)NC(=O)[C@H](CC(=O)O)NC(=O)[C@H](CO)NC(=O)[C@@H](NC(=O)[C@H](Cc1ccccc1)NC(=O)[C@@H](NC(=O)CNC(=O)[C@H](CCC(N)=O)NC(=O)C(C)(C)NC(=O)[C@@H](N)Cc1ccc(O)cc1)[C@@H](C)O)[C@@H](C)O)[C@@H](C)CC)C(=O)N[C@@H](C)C(=O)NCC(=O)NCC(=O)N1CCC[C@H]1C(=O)N[C@@H](CO)C(=O)N[C@@H](CO)C(=O)NCC(=O)N[C@@H](C)C(=O)N1CCC[C@H]1C(=O)N1CCC[C@H]1C(=O)N1CCC[C@H]1C(=O)N[C@@H](CO)C(=O)NCC(=O)N[C@@H](CO)C(=O)N[C@@H](CCC(=O)O)C(=O)N[C@@H](CCC(=O)O)C(N)=O [Example 1001]	295 nM	22.5 nM	4.59 nM	1170 nM	0.4 nM	20 nM
CC[C@H](C)[C@H](NC(=O)[C@H](Cc1ccccc1)NC(=O)[C@H](C)NC(=O)[C@](C)(Cc1ccncc1)NC(=O)[C@H](CCC(N)=O)NC(=O)[C@H](C)NC(=O)[C@H](CCCCNC(=O)COCCOCCNC(=O)CC[C@H](NC(=O)CC[C@H](NC(=O)CCCCCCCCCCCCCCCCC(=O)O)C(=O)O)C(=O)O)NC(=O)[C@H](CCCN)NC(=O)[C@H](CC(=O)O)NC(=O)[C@H](CC(C)C)NC(=O)[C@](C)(CC(C)C)NC(=O)[C@H](CCC(N)=O)NC(=O)[C@H](CO)NC(=O)[C@H](Cc1ccncc1)NC(=O)[C@H](CC(=O)O)NC(=O)[C@H](CO)NC(=O)[C@@H](NC(=O)[C@H](Cc1ccccc1)NC(=O)[C@@H](NC(=O)CNC(=O)[C@H](CCC(N)=O)NC(=O)C(C)(C)NC(=O)[C@@H](N)Cc1ccc(O)cc1)[C@@H](C)O)[C@@H](C)O)C(=O)N[C@@H](CCC(=O)O)C(=O)N[C@@H](Cc1ccc(O)cc1)C(=O)N[C@@H](CC(C)C)C(=O)N[C@H](C(=O)N[C@@H](CCC(=O)O)C(=O)N[C@H](C)C(=O)NCC(=O)N1CCC[C@H]1C(=O)N[C@@H](CO)C(=O)N[C@@H](CO)C(=O)NCC(=O)N[C@@H](C)C(=O)N1CCC[C@H]1C(=O)N1CCC[C@H]1C(=O)N1CCC[C@H]1C(=O)N[C@@H](CCC(=O)O)C(=O)NCC(=O)N[C@@H](CO)C(N)=O)[C@@H](C)CC [Example 1020]	146 nM	5.87 nM	2.29 nM	478 nM	0.309 nM	27.3 nM
CC[C@H](C)[C@H](NC(=O)[C@H](Cc1ccccc1)NC(=O)[C@H](C)NC(=O)[C@](C)(Cc1ccncc1)NC(=O)[C@H](CCC(N)=O)NC(=O)[C@H](C)NC(=O)[C@H](CCCCNC(=O)COCCOCCNC(=O)CC[C@H](NC(=O)CC[C@H](NC(=O)CCCCCCCCCCCCCCCCC(=O)O)C(=O)O)C(=O)O)NC(=O)[C@H](CCCN)NC(=O)[C@H](CC(=O)O)NC(=O)[C@H](CC(C)C)NC(=O)[C@](C)(CC(C)C)NC(=O)[C@H](CCC(N)=O)NC(=O)[C@H](CO)NC(=O)[C@H](Cc1ccncc1)NC(=O)[C@H](CC(=O)O)NC(=O)[C@H](CO)NC(=O)[C@@H](NC(=O)[C@H](Cc1ccccc1)NC(=O)[C@@H](NC(=O)CNC(=O)[C@H](CCC(N)=O)NC(=O)C(C)(C)NC(=O)[C@@H](N)Cc1ccc(O)cc1)[C@@H](C)O)[C@@H](C)O)C(=O)N[C@@H](CCC(=O)O)C(=O)N[C@@H](Cc1ccc(O)cc1)C(=O)N[C@@H](CC(C)C)C(=O)N[C@H](C(=O)N[C@@H](CCC(=O)O)C(=O)N[C@H](C)C(=O)NCC(=O)N1CCC[C@H]1C(=O)N[C@@H](CO)C(=O)N[C@@H](CO)C(=O)NCC(=O)N[C@@H](C)C(=O)N1CCC[C@H]1C(=O)N1CCC[C@H]1C(=O)N1CCC[C@H]1C(=O)N[C@@H](CO)C(=O)NCC(=O)N[C@@H](CO)C(=O)N[C@@H](CCC(=O)O)C(N)=O)[C@@H](C)CC [Example 1022]	203 nM	6.93 nM	3.28 nM	586 nM	0.35 nM	27.9 nM

Reference: patent US20240270821A1, “GIP/GLP1/GCG TRI-RECEPTOR AGONISTS AND USES THEREOF” (priority 2023, published 2024)
